Reference: patent US20030162723A1, “Supplementation of equine feedstuffs” (priority 2000, published 2003)
“Also recorded” adds a separate entry of the source.

Tests used:
[1] = design: species or system horse; details: in vivo
Excerpt: Six stabled Thoroughbred horses (2 mares, 4 geldings; aged 5-9 years), were maintained on hay and mixed feed for a minimum of two weeks before the start of the study. Horses were fed at 8 am and 4 pm. The mixed feed was a mix of cereal sources, fibre sources and protein sources with added vitamins and minerals. The ingredients included, in descending order of inclusion, enriched fibre pellets, rolled oats, soya hull pellets, flaked maise, flaked barley, flaked peas, molgio, full fat soya, vegetable oils, lucerne (alfalfa), calcium carbonate, dicalcium phosphate, salt, lysine, magnesium phosphate and zinc sulphate. Analysis: oil 8%, protein 12%, fibre 11%, ash 7.5%.
Within each part of the study, the order of the feeds was randomised between horses using a Latin Square design. The study comprised four parts:
Part 1: Acute plasma glutamine response to a single feed of molassed sugar beet (mSB), naked oats (nO) and mixed feed (M). […] Total plasma proteins were measured as an indication of plasma volume changes related to the hay or test feeds. […]
Plasma was deproteinised with an equal volume of perchloric acid and neutralised with KHCO3. […] The method was a consolidation of those by Lund (1974), and, Beutler and Michal (1974), creating a one-step enzymic method applied to a microplate reader using only 20 μl of sample. […]

[2] = Plasma ammonia after feeding molassed sugar beet supplemented with L-glutamine (dry-strip analyser); assay type: in vivo, horse; details: glutamine supplementation, 60 mg/kg bwt with mSB
Protocol: The mSB, hay and water were provided as in Part 1.
Blood samples were drawn through an indwelling jugular catheter into tubes containing lithium heparin (on ice). In Part 1 samples were taken pre and at 0.5, 1, 1.5, 2, 3, 4, 6 and 8 hours post feed. In Parts 2, 3 and 4 samples were taken pre and at 0.25, 0.5, 0.75, 1, 1.5, 2, 3, 4, 6 and 8 hours. Samples were centrifuged, the plasma harvested, divided into aliquots and stored at −80° C.
Total plasma protein content was estimated using a refractometer (Goldberg Refractometer).

- response (peak concentration and AUC) compared with the peptide [1]: greater response
- effect on plasma ammonia concentration ([2]; listed as G): no significant increase
Structure (SMILES): NC(=O)CC[C@H](N)C(=O)O [L-glutamine]
- effect on plasma ammonia concentration [2]: unaffected; also recorded: Neither did oral ingestion of glutamine have any effect
